Experimental findings from publication PMC8294059, “Identification and Immune Assessment of T Cell Epitopes in Five Plasmodium falciparum Blood Stage Antigens to Facilitate Vaccine Candidate Selection and Optimization” (Frontiers in Immunology, 2021) are described below.

Where a SMILES comes first, the peptide text is derived from it.

The target of one test is HLA-DRB1*0301 (Homo sapiens, UniProt P01903+P01911, A100K/A102G/A103R/A169T/F55Y/I96L/K41T/L162R/M171V/P40S/Q125H/Q178H/Q39Y/R42S/S66N/T106N/T262R/W38E/Y61H). The experiment in a line: biochemical. The test is classed as binding. The following applies: binding inhibition assay; NB = non-binder (no dose-dependent inhibition); read-out: DRB1*0303 IC50.
Sequence of HLA-DRB1*0301 (P01903 26-254 limits assumed, other chains not shown): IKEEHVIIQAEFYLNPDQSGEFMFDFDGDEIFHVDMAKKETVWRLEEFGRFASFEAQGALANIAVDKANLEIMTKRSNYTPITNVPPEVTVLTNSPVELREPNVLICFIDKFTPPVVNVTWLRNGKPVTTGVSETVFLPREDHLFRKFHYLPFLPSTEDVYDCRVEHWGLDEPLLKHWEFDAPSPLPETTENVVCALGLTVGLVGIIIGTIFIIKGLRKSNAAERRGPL
One may read the IC50 as the midpoint of a concentration-inhibition curve. As to `CC[C@H](C)[C@H](NC(=O)[C@H](CC(N)=O)NC(=O)[C@H](CC(N)=O)NC(=O)[C@H](Cc1ccccc1)NC(=O)[C@H](CC(N)=O)NC(=O)[C@H](CC(N)=O)NC(=O)[C@H](CC(N)=O)NC(=O)[C@H](CC(N)=O)NC(=O)[C@H](CO)NC(=O)[C@H](CCCNC(=N)N)NC(C)=O)C(=O)N1CCC[C@H]1C(=O)N[C@@H](CO)C(=O)N[C@@H](CCCNC(=N)N)C(=O)N[C@@H](Cc1ccc(O)cc1)C(=O)N[C@@H](CC(N)=O)C(=O)N[C@@H](CC(C)C)C(=O)N[C@@H](Cc1ccc(O)cc1)C(=O)N[C@@H](CC(=O)O)C(N)=O` [EBA175_017B] (Ac-RSNNNNFNNIPSRYNLYD-NH2), the concentration for half-maximal inhibition (IC50) was greater than 100 µM.

For the next test, the target named is T1, HLA-DRB1*0101 (Homo sapiens, UniProt P01903+P01911, A100R/D57E/F55L/F60I/F76Y/I96L/L162R/M171V/P40L/Q125E/R42F/V115G/Y59C).
T1 construct: purchased
The experiment in a line: biochemical. The test is classed as binding. Conditions: binding inhibition assay; NB = non-binder (no dose-dependent inhibition); read-out: DRB1*0101 IC50. The method in brief: (§1)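 IC50 values reflect how well each test peptide displaces a labeled high-affinity reference peptide from commercially available HLA-DRB1 allele monomers. Final test concentrations spanned 100,000 nM to 100 nM, with detection by europium-based time-resolved fluorescence after anti-HLA-DR capture.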
On to `CC[C@H](C)[C@H](NC(=O)[C@H](CC(N)=O)NC(=O)[C@H](CC(N)=O)NC(=O)[C@H](Cc1ccccc1)NC(=O)[C@H](CC(N)=O)NC(=O)[C@H](CC(N)=O)NC(=O)[C@H](CC(N)=O)NC(=O)[C@H](CC(N)=O)NC(=O)[C@H](CO)NC(=O)[C@H](CCCNC(=N)N)NC(C)=O)C(=O)N1CCC[C@H]1C(=O)N[C@@H](CO)C(=O)N[C@@H](CCCNC(=N)N)C(=O)N[C@@H](Cc1ccc(O)cc1)C(=O)N[C@@H](CC(N)=O)C(=O)N[C@@H](CC(C)C)C(=O)N[C@@H](Cc1ccc(O)cc1)C(=O)N[C@@H](CC(=O)O)C(N)=O` [EBA175_017B] (Ac-RSNNNNFNNIPSRYNLYD-NH2), for which the IC50 came out at 430 nM.

The next test concerns the target HLA-DRB1*1301 (Homo sapiens, UniProt P01903+P01911, A100E/A169T/K41T/L162R/M171V/P40S/Q125H/Q178H/Q39Y/Q99D/R42S/S66N/T262R/W38E/Y61H). The experiment in a line: biochemical. The test is classed as binding. The following applies: binding inhibition assay; NB = non-binder (no dose-dependent inhibition); read-out: DRB1*1301 IC50. The method in brief: as §1
`CC[C@H](C)[C@H](NC(=O)[C@H](CC(N)=O)NC(=O)[C@H](CC(N)=O)NC(=O)[C@H](Cc1ccccc1)NC(=O)[C@H](CC(N)=O)NC(=O)[C@H](CC(N)=O)NC(=O)[C@H](CC(N)=O)NC(=O)[C@H](CC(N)=O)NC(=O)[C@H](CO)NC(=O)[C@H](CCCNC(=N)N)NC(C)=O)C(=O)N1CCC[C@H]1C(=O)N[C@@H](CO)C(=O)N[C@@H](CCCNC(=N)N)C(=O)N[C@@H](Cc1ccc(O)cc1)C(=O)N[C@@H](CC(N)=O)C(=O)N[C@@H](CC(C)C)C(=O)N[C@@H](Cc1ccc(O)cc1)C(=O)N[C@@H](CC(=O)O)C(N)=O` [EBA175_017B] (Ac-RSNNNNFNNIPSRYNLYD-NH2): the half-maximal inhibitory concentration (IC50) was greater than 100 µM.

Another test deals with T2, HLA-DRB1*1501 (Homo sapiens, UniProt P01903+P01911).
T2 construct: purchased
The experiment in a line: biochemical. The test is classed as binding. The following applies: binding inhibition assay; NB = non-binder (no dose-dependent inhibition); read-out: DRB1*1501 IC50. The method in brief:
as §1
With `CC[C@H](C)[C@H](NC(=O)[C@H](CC(N)=O)NC(=O)[C@H](CC(N)=O)NC(=O)[C@H](Cc1ccccc1)NC(=O)[C@H](CC(N)=O)NC(=O)[C@H](CC(N)=O)NC(=O)[C@H](CC(N)=O)NC(=O)[C@H](CC(N)=O)NC(=O)[C@H](CO)NC(=O)[C@H](CCCNC(=N)N)NC(C)=O)C(=O)N1CCC[C@H]1C(=O)N[C@@H](CO)C(=O)N[C@@H](CCCNC(=N)N)C(=O)N[C@@H](Cc1ccc(O)cc1)C(=O)N[C@@H](CC(N)=O)C(=O)N[C@@H](CC(C)C)C(=O)N[C@@H](Cc1ccc(O)cc1)C(=O)N[C@@H](CC(=O)O)C(N)=O` [EBA175_017B] (Ac-RSNNNNFNNIPSRYNLYD-NH2), the IC50 was 23.6 µM.

The next test addresses HLA-B*4402 (Homo sapiens, UniProt P01889, A223V/A65T/A93T/A95T/D201E/D98Y/E176V/E187L/E204Q/E69K/G107R/H137Y/K202T/L105A/L119I/N104T/N87E/Q56L/Q94N/R106L/R155S/R180D/S101N/S121R/S35A/S48T/T118I/V36M/W191S/Y140D/Y91S). The experiment in a line: In vitro class I HLA binding assay (fluorescence polarization competition). The following applies: allele B*4402; cell-free competition, fluorescence polarization at 72 hours; Non-binder = no dose-dependent inhibition. The method in brief:
(§2)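 Cell-free competition assay: HLA heat-treated 53°C for 15 min to strip endogenous peptides, then mixed with fluorescent high-affinity control peptide and test peptides for 72 h to equilibrium. Displacement read by fluorescence polarization as percent inhibition; IC50 derived from a concentration range.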
(Polarisation of emitted light reports the rotation of a fluorescent probe.)
Consider NENNENNFL [EBA175_1454], for which the “IC50 (nM)” value is listed as “Non-binder”.

The test is the same for the next values; noted with them: allele B*4402; cell-free competition, fluorescence polarization at 72 hours; Non-binder = no dose-dependent inhibition; read-out: IC50.
Regarding `CC[C@H](C)[C@H](NC(=O)[C@H](Cc1c[nH]c2ccccc12)NC(=O)[C@H](CCC(N)=O)NC(=O)[C@@H](NC(=O)[C@@H](NC(=O)[C@H](CCC(N)=O)NC(=O)[C@H](CC(C)C)NC(=O)[C@H](CCC(=O)O)NC(=O)[C@@H](N)CCC(=O)O)[C@@H](C)CC)[C@@H](C)O)C(=O)O` [EBA175_0316] (H-EELQITQWI-OH), the IC50 is 19.6 µM. On the same count and under the same terms, for `CC[C@H](C)[C@H](NC(=O)[C@H](CC(=O)O)NC(=O)[C@@H](NC(=O)[C@H](Cc1c[nH]cn1)NC(=O)[C@H](CO)NC(=O)[C@H](CC(C)C)NC(=O)[C@H](CCCNC(=N)N)NC(=O)[C@H](CCC(=O)O)NC(=O)[C@H](CCC(=O)O)NC(=O)[C@@H](N)CCC(=O)O)[C@@H](C)O)C(=O)O` [EBA175_1211] (H-EEERLSHTDI-OH) the value was 19.1 µM; for `CC(C)C[C@H](NC(=O)[C@@H](NC(=O)[C@H](Cc1c[nH]cn1)NC(=O)[C@H](Cc1c[nH]c2ccccc12)NC(=O)[C@H](CCC(=O)O)NC(=O)[C@@H](N)Cc1ccccc1)[C@@H](C)O)C(=O)N[C@@H](CO)C(=O)N[C@@H](CCCCN)C(=O)N[C@@H](CCC(=O)O)C(=O)N[C@@H](Cc1ccc(O)cc1)C(=O)O` [EBA175_0375] (H-FEWHTLSKEY-OH), 19.1 µM.

Still in this test, the particulars now being: allele B*4402; fluorescence polarization competition.
With NEYSLFITS [RH5_464], the “IC50 (nM), in vitro HLA binding affinity” value is on record as “Non-binder”. Still for that read-out and setting: for KEKHLNNIF [RH5_486] the value was “Non-binder”; for KEIDNDKENI [RH5_062], “Non-binder”. Same read-out and setting: for NDVPIKMEYF [RH5_506] the value was “Non-binder”; for KDLSDMTNI [RH5_378], “Non-binder”; for NEKNDVKNN [RH5_123], “Non-binder”. Still for that read-out and setting: for SECDIGLIY [RIPR_0611] the value was “Non-binder”.

For EEKDDIKNG [RH5_049], the “IC50 (nM), in vitro HLA binding affinity” value is “Non-binder”.

A further test has as its target HLA-A*0101 (Homo sapiens, UniProt P04439, A114D/A174V/A182V/D101N/D185E/E176A/E190D/L180R/Q94H/R68K/S129P/T187R/V100A/V91M/W191G). The experiment in a line: biochemical. In kind it is binding. Conditions: allele A*0101; fluorescence polarization competition. The method in brief:
as §2
Regarding SECDIGLIY [RIPR_0611], the “IC50 (nM), in vitro HLA binding affinity” value is “Non-binder”.
